How the values were obtained:
[1] = target: T1, rat SVCT1 (Rattus norvegicus, UniProt Q9WTW7); assay: Two-microelectrode voltage-clamp of Xenopus oocytes expressing rat SVCT1; type: cell-based
T1 construct: expressed in transfected cells; host or cells: Xenopus laevis oocytes injected with cRNA
Protocol: Rat SVCT1 and SVCT2 clones were obtained by isolating SVCT1 cDNA from rat kidney by expression cloning as described in Hediger et al., Methods Enzymol. 296:17-52 (1998). The SVCT2 cDNA was subsequently isolated by PCR-based homology screening of a rat brain cDNA library. […] Radiotracer and voltage-clamp experiments were performed (at 22° C.) in Xenopus oocytes two to seven days after injection with ˜25 ng of SVCT1 or SVCT2 cRNA synthesized in vitro. Radiotracer uptake was determined by incubating 6-10 oocytes for 30 or 60 min in standard 100 mM Na^+ or Na^+-free media with 10-600 μM L-[^14C]ascorbic acid.
Functional characterization of SVCT1 and SVCT2 in Xenopus oocytes—Oocytes were isolated from Xenopus laevis (under 2-aminoethylbenzoate anaesthesia), treated with collagenase A and stored at 18° C. in modified Barths' medium. Oocytes were injected with ≈25 ng of SVCT1 or SVCT2 cRNA synthesized in vitro, or water only (control), and incubated 2-7 days before radiotracer or voltage-clamp experiments were performed. Standard Na^+ uptake medium comprised 100 mM NaCl, 2 mM KCl, 1 mM CaCl2, 1 mM MgCl2, 10 mM HEPES (pH 7.5 with Tris base). For Na^+-free or low-Na^+ media, NaCl was replaced by equimolar choline chloride; likewise, Cl^− was replaced by gluconate for Cl^−-free medium. For pH-sensitivity experiments, Na^+ media were buffered at pH 5.5-8.0 using 0-5 mM MES, 0-5 mM HEPES and 0-5 mM Tris base. L-Ascorbic acid-containing solutions were freshly-prepared (without dithiothreitol) and used immediately.
Radiotracer uptake was determined by incubating 6-10 oocytes for 30 or 60 min in standard Na^+ or Na^+-free media (at 22° C.) with 10-600 μM L-[1-^14C]ascorbic acid (final specific activity 0.3 GBq/mmol). Oocytes were solubilized with 10% SDS and [^14C]-content was measured by liquid scintillation counting. A two-microelectrode voltage-clamp was used to measure currents in control oocytes and oocytes injected with rat SVCT1 or rat SVCT2 cRNA. Microelectrodes (resistance 0.5-5 MΩ) were filled with 3 M KCl. Oocytes were superfused at 22° C. in standard Na^+ medium and clamped at a holding potential (Vh) of −50 mV. For continuous current monitoring at Vh=−50 mV, the current was low-pass filtered at 20 Hz (sampling at 1 Hz). Additionally, step-changes in membrane potential (Vm) were applied (from +50 mV to −150 mV in 20-mV increments), each for a duration of 100 ms, before and after the addition of substrate; current was low-pass filtered at 500 Hz and digitized at 5 kHz. Test solutions were always washed out with substrate-free medium (100 mM choline chloride) at pH 7.5 for several minutes. Steady-state data (obtained by averaging the points over the final 16.7 ms at each Vm step when step-changes were applied) were fitted to equation (1) below, for which I is the evoked current (i.e., the difference in steady-state current measured in the presence and absence of substrate), Imax the derived current maximum, S the concentration of substrate S (Na^+ or L-ascorbic acid),
[formula] the substrate concentration at which current was half-maximal, and nH the Hill coefficient for S. (For radiotracer experiments, I was replaced with velocity V and Imax replaced with the derived maximal velocity, Vmax.)

[2] = target: T2, human SVCT1 (Homo sapiens, UniProt Q9UHI7); assay: L-[14C]ascorbic acid radiotracer uptake in Xenopus oocytes expressing human SVCT1; type: cell-based
T2 construct: expressed in transfected cells; host or cells: Xenopus laevis oocytes injected with cRNA (vector pTLN2)
Protocol: Functional characterization in Xenopus oocytes—SVCT1 and SVCT2 cDNAs were subcloned into the pTLN2 vector (to improve functional expression in oocytes) and used for cRNA synthesis in vitro using the MEGAscript kit and T7 RNA polymerase (from Ambion). Oocytes were isolated from Xenopus laevis, treated with collagenase A and maintained at 18° C. in modified Barths' medium. Oocytes were injected with 15 ng SVCT1 or SVCT2 cRNA or water only. The radiotracer uptake and voltage-clamp experiments described below were conducted 2-5 days post-injection in standard medium of composition 100 mM NaCl, 2 mM KCl, 1 mM CaCl2, 1 mM MgCl2, and 10 mM HEPES (buffered to pH 7.5 with Tris base). For low-Na^+ or Na^+-free media, NaCl was replaced with choline chloride. For pH-dependence experiments, Na^+ media were buffered to between pH 5.5 and pH 8.0 using 0-5 mM MES, 0-5 mM HEPES and 0-5 mM Tris base. L-Ascorbic acid-containing solutions were always freshly prepared and used immediately. […] Oocytes were solubilized with 10% SDS and carbon-14 content measured by liquid scintillation counting. A two-microelectrode voltage-clamp was used to measure currents associated with SVCT1 expressed in oocytes. Oocytes were superfused at 22° C. in standard Na^+ medium and clamped at −50 mV. Current was continuously monitored by sampling at 1 Hz. Test solutions were always washed out with substrate-free, Na^+-free medium at pH 7.5 for several minutes. Once again, saturation kinetics data were fit to a modified Hill equation in which I and Imax were replaced by uptake V and maximal velocity Vmax for analysis of radiotracer uptake data.

T1 sequence (Q9WTW7 whole entry): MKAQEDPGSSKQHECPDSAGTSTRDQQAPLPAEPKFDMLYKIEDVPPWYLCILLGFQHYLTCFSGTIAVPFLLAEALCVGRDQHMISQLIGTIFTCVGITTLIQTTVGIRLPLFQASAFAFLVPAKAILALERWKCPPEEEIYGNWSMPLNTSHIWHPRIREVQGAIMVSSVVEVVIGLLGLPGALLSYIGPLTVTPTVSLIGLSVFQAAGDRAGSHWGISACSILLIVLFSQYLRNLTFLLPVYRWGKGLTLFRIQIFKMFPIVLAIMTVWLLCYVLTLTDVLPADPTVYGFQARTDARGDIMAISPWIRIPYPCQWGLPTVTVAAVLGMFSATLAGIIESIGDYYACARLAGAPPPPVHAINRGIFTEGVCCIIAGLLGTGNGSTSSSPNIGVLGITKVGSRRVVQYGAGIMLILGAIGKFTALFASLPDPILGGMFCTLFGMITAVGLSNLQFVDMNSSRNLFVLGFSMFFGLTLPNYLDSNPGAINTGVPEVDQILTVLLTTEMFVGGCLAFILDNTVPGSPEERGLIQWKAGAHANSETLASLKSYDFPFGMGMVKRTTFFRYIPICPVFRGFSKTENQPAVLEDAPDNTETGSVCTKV
T2 sequence (Q9UHI7 whole entry): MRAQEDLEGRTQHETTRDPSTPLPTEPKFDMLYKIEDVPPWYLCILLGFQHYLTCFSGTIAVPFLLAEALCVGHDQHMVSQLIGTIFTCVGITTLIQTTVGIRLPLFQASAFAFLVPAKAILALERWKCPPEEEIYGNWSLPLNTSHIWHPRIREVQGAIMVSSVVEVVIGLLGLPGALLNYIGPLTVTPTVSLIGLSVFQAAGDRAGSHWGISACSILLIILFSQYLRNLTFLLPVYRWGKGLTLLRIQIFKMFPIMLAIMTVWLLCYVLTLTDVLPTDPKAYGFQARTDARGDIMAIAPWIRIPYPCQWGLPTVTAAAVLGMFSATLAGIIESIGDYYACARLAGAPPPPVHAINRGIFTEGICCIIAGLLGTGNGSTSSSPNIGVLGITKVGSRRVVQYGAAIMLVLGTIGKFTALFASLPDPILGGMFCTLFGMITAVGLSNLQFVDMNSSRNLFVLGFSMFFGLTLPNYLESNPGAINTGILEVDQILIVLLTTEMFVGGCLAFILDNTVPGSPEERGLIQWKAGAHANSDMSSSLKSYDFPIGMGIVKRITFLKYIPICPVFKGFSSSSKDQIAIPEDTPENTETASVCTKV

With `O=C1O[C@H]([C@@H](O)CO)C(O)=C1O` [L-ascorbic acid] the “Hill coefficient (nH)” value ([1]; evoked currents, −50 mV) was “≈ 1”, the “reduction of evoked currents at pH 5.5 versus pH 7.5” value ([1]; extracellular pH 5.5 compared with pH 7.5) was 50% and the “L-ascorbic acid-evoked reversible inward currents” value ([1]; oocytes expressing SVCT1, in the presence of Na^+) was “up to −100 nA”. The “K0.5 (L-ascorbic acid concentration at which currents were half-maximal)” value ([1]; −50 mV, 100 mM Na^+) was 30 µM, the “stimulation of uptake compared with water-injected control oocytes” value ([2]; 500 μM L-[14C]ascorbic acid) was 200 fold and the “uptake of L-[14C]ascorbic acid” value ([2]; 500 μM L-[14C]ascorbic acid) was 15.5±1.2 pmol/min per oocyte. For the same compound, the “Hill coefficient (nH)” value ([2]; radiotracer uptake) was roughly 1 and the “half-maximal concentration (K0.5) of uptake” value ([2]; radiotracer uptake, Michaelis-Menten-type saturation) was “≈ 90 μM”.

Reference: patent US7371536B2, “Methods for transporting vitamin C” (priority 1999, dated 2008)
